Test results taken from patent publication US20250177340A1, “Tartaric Acid Analogs and Uses Thereof” (Lapix Therapeutics, Inc., priority 2021, published 2025).

Tests used:
Granzyme B and IFN-γ = experiment: GzmB+/IFN-γ+ double-positive murine CD8+ T-cells, Example 7; assay type: cell-based, C57BL/6 mice
Excerpt: In this study, the effects of increasing doses of compound B and compound C on proliferation (CFSE staining), activation (Granzyme B and IFN-γ), and checkpoint modulation (PD1 and TIM3) of murine CD8+ T-cells in the presence and absence of phosphatidylserine (PS) were explored.
Preparation of test materials: 30:70 PS:DMPC liposomes were synthesized in PBS. […] Compound C was first dissolved in a small volume of DMSO before diluting to the final desired concentration.
Tissue culture and dosing: Splenocytes of C57BL/6 mice were stained with CFSE and prepared, cultured, and dosed. Cells were seeded at 4×10^5 cells/well.
Controls: Two controls were used. A negative control dosed with 10 ng/ml IL-2 was used, and a positive control dosed with 20 μg/ml ConA and 10 ng/ml IL-2 was used.
Treatment: After ConA stimulation (10 μg/ml), cells were dosed with log 3 dilution of compound B or compound C to cover a range from 1×10^−3 to 30 mM in duplicates with or without 0.1 mM PS:DMPC liposomes. All wells were dosed with 10 ng/ml of IL-2.
Flow cytometer: Flow cytometer analysis was performed to assess cell proliferation by CFSE, activation by double staining for Granzyme B (GzmB) and IFN-γ, checkpoint modulation by double staining for PD-1 and TIM3.
Exposure-response analysis: Change from baseline was calculated for each marker as follows:
Concentration versus change was fitted to an appropriate three-, four- or five-parameter log-logistic model using “dre” package in “R.”
The fold change from baseline GzmB+/IFN-γ+ double-positive CD8+ T-cells as a function of increasing doses of compound B was calculated using equation 1, where Responsecontrol was GzmB+/IFN-γ+ double-positive CD8+ T-cells in cells treated with IL-2 alone and Responsetreatment was GzmB+/IFN-γ+ double-positive CD8+ T-cells at each dose of compound B. The baseline PS response was calculated using the same equation with Responsetreatment as the GzmB+/IFN-γ+ double-positive CD8+ T-cells treated with 0.1 mM PS.

PD-1 = experiment: Percent PD-1+/CD8+ T-cells in splenocytes after a single dose, melanoma murine model; assay type: in vivo, mice
Method: The pharmacodynamic (PD) effects of a single IV dose of Compound B in a melanoma murine model were evaluated. B16F10 melanoma cells were grown in RPMI 1640 media supplemented with 10% FBS and antibiotics (penicillin/streptomycin) using T75 flasks. When cells reached 70-80% confluency, they were treated with 3 ml of 0.25% Trypsin/EDTA. Afterward, detached cells were harvested. A single-cell suspension was prepared in PBS. An IV injection of 10^5 cells in mice marked day −3 of the experiment.
Animals were housed four per cage, and had access to food and water ad libitum. Compound B was dissolved in sterile PBS, and pH was adjusted to approximately 7.5. Sterile PBS served as control.
Three days after the IV injection of melanoma cells, animals in the baseline group (n=3) were sacrificed and their spleens were collected for KLRG-1, CTLA-4, and PD-1 analysis. At each predetermined time-point (24, 48, and 120 hours after dosing) three animals from each group were sacrificed for splenocyte analysis of KLRG-1, CTLA-4, and PD-1 expression levels, and expression levels were compared to baseline.
Spleens collected for splenocyte analysis were prepared into a single-cell suspension for cellular phenotyping by flow cytometry. Cells were stained and gated for CD8. Percent KLRG-1+, CTLA-4+, and PD-1+ CD8+ T-cells were evaluated using flow cytometry.
The PD effects of a single IV dose of Compound C were evaluated in a melanoma murine model conducted as described in Example 10. […] This study also evaluated whether Compound C was pharmacodynamically active orally.
In a prior study, Compound C was dosed at 1 mg IV QD for seven days. […] A single PO dose was chosen to confirm oral activity of Compound C. Compound C was dissolved in DMSO, and then diluted in sterile PBS. pH was adjusted to approximately 7.5.
The oral and intravenous PD effects of a single dose of Compound E were evaluated in a melanoma murine model conducted as described in Example 10.
Compound E was dissolved in DMSO, and then diluted in sterile PBS. pH was adjusted to approximately 7.5.

B16F10 melanoma cells = experiment: Tumor growth inhibition and overall survival, SC B16F10 melanoma (Example 13); assay type: in vivo, mice; conditions: Compound B 4 mg/mouse PO QD x7, Compound C 2.5 mg/mouse IV QD; for animals showing any tumor growth: by day 14; for animals with measurable tumors: by day 16; for tumor volume versus placebo group: duration of the study
Method: This study was designed to evaluate the effects of Compound B and Compound C on tumor growth and the overall survival of animals implanted SC with 10^5 melanoma cells. Furthermore, ex vivo analysis of splenocytes at the end of dosing was used to evaluate change in the T-cell population and function. FIG. 8A is a diagram of the study design.
Animals were housed four per cage and had access to food and water ad libitum. Compound B was dissolved in sterile PBS, and pH was adjusted to approximately 7.5. Compound C was first dissolved in DMSO before diluting in sterile PBS. Sterile PBS was used as a control. Compound B was dosed at 4 mg/mouse PO QD. This dose was expected to result in an exposure equivalent to a 1 mg/mouse IV dose. Compound C was dosed at 2.5 mg/mouse IV.
B16F10 melanoma cells were grown in RPMI 1640 media supplemented with 10% FBS and antibiotics (penicillin/streptomycin) using T75 flasks. When cells reached 70-80% confluency, they were treated with 3 ml of 0.25% trypsin/EDTA. Detached cells were harvested. A single-cell suspension was prepared in PBS. A dorsal SC injection of 10^5 cells in mice marked day 0 of the experiment. Animals were monitored daily, and tumors were measured twice a week.
For tumor growth inhibition, animals were divided into 3 groups. The control group received an IV injection of PBS to match the start time, dosing volume, and dosing frequency of the Compound C treatment group. The treatment group received 100 μl of 4 mg/mouse PO QD of Compound B for 7 days starting at day 7 after tumor implantation, or 2.5 mg/mouse IV QD of Compound C. The endpoint was reached when the tumor reached 1 cm^3. Tumor volume was calculated using the following formula:
Tumor volume=length×width×½ width
The mice were also monitored for survival, and were euthanized when the tumor size reached the predefined endpoint of 1 cm^3.

[1] = increasing doses, absence of PS

| Structure (SMILES) | fold increase in GzmB+/IFN-γ+ double-positive CD8+ T-cells vs PS treated cell (Granzyme B and IFN-γ; highest dose, 0.1 mM PS) [fold] | fold increase in GzmB+/IFN-γ+ double-positive CD8+ T-cells vs negative control (Granzyme B and IFN-γ; highest dose, 0.1 mM PS) [fold] | fold increase in GzmB+/IFN-γ+ double-positive CD8+ T-cells vs negative control (Granzyme B and IFN-γ; [1]) | animals did not survive the study (B16F10 melanoma cells) | animals survived tumor-free for the duration of the study (B16F10 melanoma cells) | animals survived with a tumor (to day 28) (B16F10 melanoma cells) | survival (B16F10 melanoma cells) [%] | animals showing any tumor growth (B16F10 melanoma cells) | animals with measurable tumors (B16F10 melanoma cells) | tumor volume versus placebo group (B16F10 melanoma cells) | other results |
| --- | --- | --- | --- | --- | --- | --- | --- | --- | --- | --- | --- |
| O=C(O)[C@H](O)[C@@H](O)C(=O)OCCCc1ccccc1 [Compound B, (2R,3R)-2,3-dihydroxy-4-oxo-4-(3-phenylpropoxy)butanoic acid] | 4.6 | 2 | more than 16 fold | 3/7 | 3/7 | 1/7 | 40 | 3/7 | 3 | statistically lower | PD-1+/CD8+ T-cells, mean (PD-1; 0.14 mg/mouse IV single dose, 24 h): 38.6%; PD-1+/CD8+ T-cells, mean (PD-1; 0.14 mg/mouse IV single dose, 48 h): 32.5%; PD-1+/CD8+ T-cells, mean (PD-1; 0.14 mg/mouse IV single dose, 120 h): 59.7%; PD-1+/CD8+ T-cells, mean (PD-1; 0.7 mg/mouse IV single dose, 24 h): 44.5%; PD-1+/CD8+ T-cells, mean (PD-1; 0.7 mg/mouse IV single dose, 48 h): 26.7%; PD-1+/CD8+ T-cells, mean (PD-1; 0.7 mg/mouse IV single dose, 120 h): 58.2%; reduction in PD-1+/CD8+ T-cell compared to control (PD-1; 1.2 mg group, day 5): 41.8%; PD-1+/CD8+ T-cells, mean (PD-1; 1.4 mg/mouse IV single dose, 24 h): 42.3%; PD-1+/CD8+ T-cells, mean (PD-1; 1.4 mg/mouse IV single dose, 48 h): 30.4%; PD-1+/CD8+ T-cells, mean (PD-1; 1.4 mg/mouse IV single dose, 120 h): 34.7% |
| O=C(O)[C@H](O)[C@@H](O)C(=O)OCCC(c1ccccc1)c1ccccc1 [Compound C, (2R,3R)-4-(3,3-diphenylpropoxy)-2,3-dihydroxy-4-oxobutanoic acid] | 18 | 10 | about 30 fold | 2/8 | 5/8 | 1/8 | 80 | 0/8 | 0 | statistically lower | PD-1+/CD8+ T-cells, mean (PD-1; 0.025 mg/mouse IV single dose, 24 h): 35%; PD-1+/CD8+ T-cells, mean (PD-1; 0.1 mg/mouse IV single dose, 24 h): 34%; PD-1+/CD8+ T-cells, mean (PD-1; 0.25 mg/mouse IV single dose, 24 h): 27%; PD-1+/CD8+ T-cells, mean (PD-1; 1 mg/mouse IV single dose, 24 h): 26%; PD-1+/CD8+ T-cells, mean (PD-1; 2.5 mg/mouse po single dose, 24 h): 33%; decrease in PD-1+/CD8+ T-cells compared to baseline (PD-1; 0.25- and 1-mg IV groups): approximately 20%; decrease in PD-1+/CD8+ T-cells compared to time match control (PD-1; 0.25- and 1-mg IV groups): approximately 30%; change in PD-1+/CD8+ T-cells compared to baseline or control (PD-1; remaining groups (0.025, 0.1 mg IV, 2.5 mg PO)): No meaningful changes |
